Laboratory results as given in patent US8026359B2, “Fungicidal heterocyclic amines” (E.I. du Pont de Nemours and Company, priority 2007, dated 2011).

What was measured:
Type in all cases: in vivo
Settings in all cases: 200 ppm; 100 = 100% disease control, 0 = no control relative to controls
Plasmopara viticola = assay: Test L: grape downy mildew, spray after inoculation of grape seedlings
Description: General protocol for preparing test suspensions for Tests A-R: The test compounds were first dissolved in acetone in an amount equal to 3% of the final volume and then suspended at the desired concentration (in ppm) in acetone and purified water (50/50 mix) containing 250 ppm of the surfactant Trem® 014 (polyhydric alcohol esters). The resulting test suspensions were then used in tests A-R. In Tests A-M, compounds were sprayed as a 200 ppm test suspension (equivalent to a rate of 500 g/ha) or as a 40 ppm test suspension to the point of runoff on the test plants. In Tests N-R, compounds were sprayed as a 100 g/ha test suspension (equivalent to a rate of 100 ppm) on the test plants at an application volume of 1000 L/ha. Grape seedlings were inoculated with a spore suspension of Plasmopara viticola (the causal agent of grape downy mildew) and incubated in a saturated atmosphere at 20° C. for 24 h. After a short drying period, the test suspension was sprayed to the point of run-off on the grape seedlings and then moved to a growth chamber at 20° C. for 6 days, after which time the test units were placed back into a saturated atmosphere at 20° C. for 24 h. Upon removal, disease ratings were made.

Botrytis cinerea = assay: Test F: tomato Botrytis, preventive spray on tomato seedlings
Summary of the method: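 Compounds dissolved in acetone (3% of final volume), suspended in 50/50 acetone/water with 250 ppm Trem® 014. Sprayed preventively to run-off on tomato seedlings at 200 ppm (500 g/ha) or 40 ppm.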

[1] = tested on: Erysiphe graminis f. sp. tritici; assay: Test A: wheat powdery mildew, preventive spray on wheat seedlings
Summary of the method: (§1)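 Compounds were dissolved in acetone (3% of final volume), then suspended in 50/50 acetone/purified water with 250 ppm Trem 014 surfactant. Plants were sprayed to run-off at 200 ppm (equivalent to 500 g/ha) or 40 ppm.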

Pythium aphanidermatum = assay: Test M: bluegrass pythium blight, preventive spray on bluegrass seedlings
Description: (§2) General protocol for preparing test suspensions for Tests A-R: The test compounds were first dissolved in acetone in an amount equal to 3% of the final volume and then suspended at the desired concentration (in ppm) in acetone and purified water (50/50 mix) containing 250 ppm of the surfactant Trem® 014 (polyhydric alcohol esters). The resulting test suspensions were then used in tests A-R. In Tests A-M, compounds were sprayed as a 200 ppm test suspension (equivalent to a rate of 500 g/ha) or as a 40 ppm test suspension to the point of runoff on the test plants. In Tests N-R, compounds were sprayed as a 100 g/ha test suspension (equivalent to a rate of 100 ppm) on the test plants at an application volume of 1000 L/ha. The test suspension was sprayed to the point of run-off on bluegrass seedlings.

Fusarium graminearum = assay: whole plant or invertebrate
Rhizoctonia oryzae = assay: Test J: turf brown patch, preventive spray on creeping bent grass seedlings
Description: as §2, with “creeping bent grass” for “bluegrass”

Septoria tritici = assay: Test D: wheat leaf blotch, preventive spray on wheat seedlings
Summary of the method: as §1

[2] = tested on: Colletotrichum orbiculare; assay: Test I: cucumber Colletotrichum anthracnose, preventive spray on cucumber seedlings
Summary of the method: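 Compound was dissolved in acetone (3% of final volume), then suspended in 50/50 acetone/water with 250 ppm Trem 014 surfactant. Cucumber seedlings were sprayed to run-off as a preventive treatment at 200 ppm (equivalent to 500 g/ha) or 40 ppm.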

[3] = tested on: Puccinia recondita f. sp. tritici; assay: Test B: wheat leaf rust, preventive spray on wheat seedlings
Summary of the method: as §1

Phytophthora infestans = tested on: Phytophthora infestans
Septoria nodorum = assay: Test C: wheat glume blotch, preventive spray on wheat seedlings
Summary of the method: as §1

| Compound | Test L disease control rating (Plasmopara viticola) | Test F disease control rating (Botrytis cinerea) | Test A disease control rating [1] | Test M disease control rating (Pythium aphanidermatum) | Test E disease control rating (Fusarium graminearum) | Test J disease control rating (Rhizoctonia oryzae) | Test D disease control rating (Septoria tritici) | Test I disease control rating [2] | Test B disease control rating [3] | Test K disease control rating (Phytophthora infestans) | Test C disease control rating (Septoria nodorum) |
| --- | --- | --- | --- | --- | --- | --- | --- | --- | --- | --- | --- |
| COCC(C)Nc1nccc(-c2ccnc(Nc3cccc(C#N)c3)c2)n1 (stereo not shown) [Compound 42] | 16% | 75% | 0% | 0% | 0% | 0% | 9% | 92% | 88% | 0% | 94% |
| COCC(C)Nc1nccc(-c2ccnc(Nc3ccccc3)c2)n1 (stereo not shown) [Compound 43] | 0% | 92% | 29% | 0% | 100% | 9% |  | 90% | 99% | 0% | 99% |
| COCC(C)Nc1nccc(-c2ccnc(Nc3cccc([N+](=O)[O-])c3)c2)n1 (stereo not shown) [Compound 44] | 0% | 0% | 0% | 0% | 99% | 0% |  | 40% | 89% | 0% | 98% |
| CC(C)(C)Nc1nccc(-c2ccnc(Nc3cccc(F)c3)c2)n1 [Compound 45] | 0% | 20% | 77% | 0% | 90% | 0% |  | 8% | 79% | 0% | 98% |
| COCC(C)Nc1nccc(-c2ccnc(Nc3cccc(Cl)c3F)c2)n1 (stereo not shown) [Compound 46] | 0% | 7% | 0% | 0% | 94% | 0% |  | 0% | 91% | 0% | 97% |
| COCC(C)Nc1nccc(-c2ccnc(Nc3ccc(F)cc3F)c2)n1 (stereo not shown) [Compound 47] | 0% | 0% | 0% | 0% | 92% | 0% |  | 40% | 85% | 0% | 0% |
